Data: patent publication US20180296523A1, “USE OF POLYMETHOXYLATED FLAVONES TO AMELIORATE CIRCADIAN RHYTHM DISORDERS” (THE BOARD OF REGENTS OF THE UNIVERSITY OF TEXAS SY, priority 2017, published 2018)
“Also recorded” adds a separate entry of the source.

Key:
[1] = system: Clock^Δ19/+ PER2::Luc reporter cells; assay: High-throughput chemical screen, PER2::Luc reporter rhythm; assay type: cell-based, mouse; details: for PER2::Luc reporter rhythm / circadian amplitude: Clock^Δ19/+ cells, forskolin pre-stimulated
Method: Specifically, the chemical screen for circadian clock modulators was conducted at the Chemical Genomics Core facility at the University of Texas Health Science Center at Houston (UTHSC-H). The in-house chemical library screened consisted of compounds from the National Institutes of Health (NIH) Clinical Collection, National Cancer Institute collection, and Microsource Spectrum Collection. Screening was conducted largely on the basis of the protocol previously described (Chen et al., 2012). […] Upon confluency, cells were incubated with 5 μM forskolin for 1-2 hr, followed by the addition of chemical compounds to the plates with robotic arms (Beckman), and then subjected to continuous monitoring over several days in a temperature-controlled EnVision microplate reader (Perkin Elmer). Data analysis was carried out by using the MultiCycle software (Actimetrics) for measurement of period, phase, and amplitude. The chemical screen for circadian clock modulators was conducted at the Chemical Genomics Core facility at the UTHSC-H. The in-house chemical library screened consists of compounds from NIH Clinical Collection, NCI collection and Microsource Spectrum Collection. The screening was conducted largely based on the protocol previously described (Chen et al., 2012). […] Cells were then incubated with 5 μM forskolin for 1-2 h followed by the addition of chemical compounds to the plates with robotic arms (Beckman), and then subjected to continuous monitoring over several days in a temperature-controlled EnVision microplate reader (Perkin Elmer). Data analysis was carried out by using the MultiCycle software (Actimetrics) for measurement of period, phase, and amplitude. […] Tissue explant experiments were conducted as described previously (Chen et al., 2012).

[2] = system: HFD-fed WT and Clock^Δ19/Δ19 C57BL/6J mice; assay: Diet-induced obese (DIO) mouse model, HFD-fed WT and Clock^Δ19/Δ19 mice; assay type: in vivo; details: for body weight gain: 10-week treatment
Method: For diet-induced obesity, male mice at 6 weeks of age were fed with HFD (D12492, Research Diets) until the end of the experimental protocol. The mice were treated with either vehicle (DMSO) or NOB (200 mg/kg body weight) via oral gavage every other day, in the time window of ZT8-10, throughout the experimental period. An every-other-day dosing regimen was chosen at the indicated level based on several reasons. First, previous in vivo studies have used similar overall amounts for mouse treatment (100-125 mg/kg/day) (Lee et al., 2013; Li et al., 2006). The oral gavage procedure was done in late afternoon (ZT8-10) prior to the start of their active phase, reasoning that this may coincide with the time-window adopted by previous studies. Second, daily dosing was not chosen to avoid entraining the experimental mice with the procedure per se as an artificial zeitgeber. Furthermore, pilot pharmacokinetic (PK) assays were done under a single-dose condition (Fig. S7). […] Therefore, it was reasoned that every-other day dosing helps avoid any incomplete daily clearance over the chronic experimental period (10 weeks). Weekly body weight was monitored in different treatment mice for 10 weeks. Body mass composition was measured at the end of experiments using a […] spectrometer (Bruker Optics, Texas) (Garcia et al., 2013). A control group of mice were fed with regular chow diet (Purina 5001) in parallel with the two treatment groups in HFD. For db/db and db/db Clock^[…]/[…] mice, male mice at 6-8 weeks of age were group-housed (2-3/cage) and maintained on regular chow diets. Mice were subjected to oral gavage with either DMSO or NOB as described above. Energy expenditure was examined by measuring oxygen consumption with indirect calorimetry as described (Chutkow et al., 2010; Daniels et al., 2010). After 8 weeks of treatments described above, mice from each group were placed at room temperature (22° C.-24° C.) in the chambers of a Comprehensive Lab Animal Monitoring System (CLAMS, Columbus Instruments, Columbus, Ohio). After mice adapted to the metabolic chamber, volume of O2 consumption and CO2 production was continuously recorded over a 24-hr period. Average O2 consumption was calculated and compared between different treatments. Food and water were provided ad libitum. To measure food intake, food pellets were weighted every three hours over a 24-hr period in mice treated as above. The daily food intake was calculated from averaged food intake of 3 independent experiments. Serum samples were obtained at ZT2 from treated mice as previously described (Jeong et al., 2015). Hepatic triglyceride and cholesterol were extracted as previously described (Liu et al., 2012). The triglyceride and cholesterol levels in liver and serum were assessed by Serum Triglyceride Determination Kit (Sigma) and Cholesterol Assay Kit (Cayman), respectively. The assay plates were read by a TECAN M200 instrument (Tecan) following the manufacturer's instructions. Glucose tolerance test (GTT) and insulin tolerance test (ITT) were performed largely as described (He et al., 2015; Jeong et al., 2015). Briefly, after overnight and 5-hr fasting, GTT and ITT were conducted at ZT2 and ZT8 respectively. Glucose levels were measured from tail blood before and 15, 30, 60, or 120 min after injection of either 1 g/kg glucose or 0.75 U/kg insulin (Sigma) at ZT2 and ZT8 respectively by using the ONETOUCH UltraMini blood glucose monitoring system (LifeScan). Serum insulin levels were measured with the Rat/Mouse Insulin Elisa kit (Millipore) according to the manufacturer's instructions. The plasma samples were collected at ZT2 as described above for lipid assays. For microscopic analysis of lipid accumulation in liver, tissue samples were collected and immediately embedded in Tissue-Tek OCT cryostat molds (Leica) and then frozen at -80° C. Tissue sections were stained in 0.5% Oil Red O and counterstained with Mayer's hematoxylin for 1 min. […]

RORα-LBD = target: T1, RORα-LBD (Homo sapiens, UniProt P35398); assay: Radioligand receptor binding assay with 25-[3H]-OHC, RORα-LBD; details: in the presence of 4.5 nM 25-[3H]-OHC
T1 sequence (P35398 272-510 limits assumed): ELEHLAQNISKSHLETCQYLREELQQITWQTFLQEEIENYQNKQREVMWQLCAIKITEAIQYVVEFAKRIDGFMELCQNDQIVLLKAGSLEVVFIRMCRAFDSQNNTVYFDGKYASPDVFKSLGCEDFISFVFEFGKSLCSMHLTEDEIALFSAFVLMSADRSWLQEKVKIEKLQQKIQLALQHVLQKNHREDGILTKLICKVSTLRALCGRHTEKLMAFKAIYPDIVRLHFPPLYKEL
Method: Ligand binding was determined by filter binding assays to calculate the Kd value. […] Ki was determined using the Cheng-Prusoff equation.

[3] = HFD-fed WT mice, serum and liver

Q: What does the source list for `C[C@@H]1O[C@@H](O[C@H]2[C@H](Oc3cc(O)c4c(c3)O[C@H](c3ccc(O)cc3)CC4=O)O[C@H](CO)[C@@H](O)[C@@H]2O)[C@H](O)[C@H](O)[C@H]1O` [naringin, reference compound]?
A: PER2::Luc reporter rhythm / circadian amplitude [1]: failed to enhance cellular circadian rhythms; reporter luminescence ([1]; PER2::LUC Clock^Δ19/+ reporter cells): did not enhance the reporter luminescence; difference of treatment effects between WT and Clock^Δ19/Δ19 mice ([2]; HFD-fed C57BL/6J mice): largely indistinguishable; blood insulin levels ([2]; HFD-fed Clock^Δ19/Δ19 mice): decreased to similar extents; glucose tolerance (GTT) ([2]; HFD-fed Clock^Δ19/Δ19 mice): modest effects on glucose tolerance; insulin sensitivity (ITT) ([2]; HFD-fed Clock^Δ19/Δ19 mice): modest effects on insulin sensitivity; fasting blood glucose levels ([2]; HFD-fed Clock^Δ19/Δ19 mice, daytime and nighttime): failed to reduce fasting blood glucose levels; fasting glucose levels ([2]; HFD-fed WT mice): reduced fasting blood glucose levels; glucose tolerance (GTT) ([2]; HFD-fed WT mice): modest effects on glucose tolerance; insulin sensitivity (ITT) ([2]; HFD-fed WT mice): modest effects on insulin sensitivity; blood insulin levels ([2]; HFD-fed WT mice, vs vehicle): decreased to similar extents; effects on body weight gain and lipid and glucose homeostasis ([2]; HFD-fed mice, compared with nobiletin): significantly attenuated effects; competitive binding to RORα-LBD (RORα-LBD): markedly diminished binding

Q: How did the “PER2::Luc reporter rhythm / circadian amplitude” value [1] turn out when `COc1ccc(-c2cc(=O)c3c(OC)c(OC)c(OC)c(OC)c3o2)cc1OC` [nobiletin] was run?
A: The value was “enhance the reporter rhythm”.

Q: And the “PER2::Luc reporter rhythm / circadian amplitude” value ([1]; listed as Nobiletin)?
A: The value was “significantly enhance circadian amplitude”.

Q: What about the “lipid droplet formation in liver” value ([2]; DIO WT liver) of the same molecule?
A: Its value is “essentially abolished lipid droplet formation”.

Q: And the “liver steatosis (H&E and Oil Red O staining)” value ([2]; DIO WT liver)?
A: Its value is “strongly improved liver steatosis”.

Q: And the adipocyte cell size ([2]; HFD-fed Clock^Δ19/Δ19 mice)?
A: The adipocyte cell size was “essentially unchanged”.

Q: What about the energy expenditure ([2]; HFD-fed Clock^Δ19/Δ19 mice) of the same molecule?
A: The energy expenditure was “no increase”.

Q: And the fat mass ([2]; HFD-fed Clock^Δ19/Δ19 mice)?
A: Its fat mass is “essentially unchanged”.

Q: And the food intake ([2]; HFD-fed Clock^Δ19/Δ19 mice)?
A: Its food intake is “did not change food intake”.

Q: And the “glucose and lipid homeostasis” value ([2]; HFD-fed Clock^Δ19/Δ19 mice)?
A: Its value is “did not significantly improve”.

Q: And the respiratory quotient ([2]; HFD-fed Clock^Δ19/Δ19 mice)?
A: Its respiratory quotient is “no increase”.

Q: What about the body weight gain ([2]; HFD-fed Clock^Δ19/Δ19 mice) of the same molecule?
A: Its body weight gain is “very modest reduction in body weight gain”.

Q: What about the “beneficial effect on liver steatosis” value ([2]; HFD-fed Clock^Δ19/Δ19 mice, compared with WT mice) of the same molecule?
A: The value was “markedly attenuated”.

Q: And the fasting glucose levels ([2]; HFD-fed WT mice)?
A: The fasting glucose levels was “lowered fasting glucose levels”.

Q: And the “fat mass (body mass composition)” value ([2]; HFD-fed WT mice)?
A: The value was “reduction in fat mass”.

Q: And the “glucose tolerance (GTT)” value ([2]; HFD-fed WT mice)?
A: The value was “significantly improved”.

Q: What about the “insulin sensitivity (ITT)” value ([2]; HFD-fed WT mice) of the same molecule?
A: The value was “significantly improved”.

Q: What about the respiratory quotient ([2]; HFD-fed WT mice) of the same molecule?
A: The respiratory quotient was “increased”.

Q: What about the “white adipose cell size” value ([2]; HFD-fed WT mice) of the same molecule?
A: Its value is “reduction”.

Q: What about the body weight gain ([2]; HFD-fed WT mice, 200 mg/kg oral every other day, vs vehicle) of the same molecule?
A: The body weight gain was “significantly attenuated body weight gain”.

Q: What about the “total cholesterol (TC) levels” value [2, 3] of the same molecule?
A: Its value is “significantly diminished”.

Q: What about the “total triglyceride (TG) levels” value [2, 3] of the same molecule?
A: Its value is “significantly diminished”.

Q: What about the “oxygen consumption (energy expenditure)” value ([2]; HFD-fed WT mice, throughout the circadian cycle) of the same molecule?
A: The value was “greatly elevated oxygen consumption”.

Q: What about the blood insulin levels ([2]; HFD-fed WT mice, vs vehicle) of the same molecule?
A: Its blood insulin levels is “strongly reduced”.

Q: What about the food intake ([2]; HFD-fed WT mice, vs vehicle) of the same molecule?
A: Its food intake is “not significantly altered”.

Q: And the “white adipose cell size” value ([2]; HFD-fed WT mice, listed as NOB)?
A: The value was “reduced visceral WAT cell size”.

Q: What about the “competitive binding to RORα-LBD” value (RORα-LBD) of the same molecule?
A: Its value is “direct binding; also recorded: robust competitive binding”.
